Results published in paper PMC9218946, “Identification of a Subtype-Selective Allosteric Inhibitor of GluN1/GluN3 NMDA Receptors” (Frontiers in Pharmacology, 2022).

What was measured:
[1] = tested on: GluN1/GluN3A with mutations W671A and L673A of the GluN3A subunit; assay: Whole-cell patch-clamp on transiently transfected CHO cells, GluN3A pre-M1 alanine mutants; type: cell-based
Experimental: (§1) To establish GluN1/GluN3A stable cell lines, the human GluN1-1a (GenBank: NP_015566.1) and the rat GluN3A (GenBank: NP_612555.1) genes were subcloned into the pcDNA5-FRT-To and pcDNA3.1 vectors, respectively. An EGFP tag was added to the C-terminus of GluN1 or GluN3A using a T2A linker for identification of transfected cells during transient transfection. Point mutations were introduced by site-directed mutagenesis using PrimeSTAR (Takara). The human GluN2A (GenBank: NP_000824.1) gene was subcloned into the pcDNA3.1 vector. The chimeras GluN3A^670-673 MWPL/LEPF and GluN2A^550-553 LEPF/MWPL were generated using In-Fusion HD Cloning kits (Takara). All constructs were confirmed by DNA sequencing (Beijing Genomics Institute).
(§2) The Flp-in T-Rex 293 cell lines (Invitrogen), stably expressing GluN1/GluN3A were grown in DMEM basal medium (Gibco) supplemented with 10% fetal bovine serum (FBS, Invitrogen), 15 μg/ml blasticidin S (Invitrogen), 50 μg/ml hygromycin B (Invitrogen) and 500 μg/ml G418 (Gibco). Expression in cell lines was induced with 1 μg/ml doxycycline (Invitrogen) 24–28 h prior to the experiments. Chinese hamster ovary (CHO) cells were grown in DMEM-F12 basal medium (Gibco) supplemented with 10% FBS. In the study on the action sites of WZB117, all whole-cell patch-clamp recordings were performed on CHO cells. […]

GluN1/GluN3A receptors = GluN1/GluN3A receptors (UniProt Q05586+Q9R1M7); assay: TEVC recording in Xenopus oocytes expressing GluN1/GluN3A; type: cell-based; design: expressed in transfected cells; host or cells: Xenopus oocytes (cDNA/cRNA injection); settings: 30 μM WZB117, Xenopus oocytes
Chain of GluN1/GluN3A receptors (Q9R1M7 24-1135, other chains not shown): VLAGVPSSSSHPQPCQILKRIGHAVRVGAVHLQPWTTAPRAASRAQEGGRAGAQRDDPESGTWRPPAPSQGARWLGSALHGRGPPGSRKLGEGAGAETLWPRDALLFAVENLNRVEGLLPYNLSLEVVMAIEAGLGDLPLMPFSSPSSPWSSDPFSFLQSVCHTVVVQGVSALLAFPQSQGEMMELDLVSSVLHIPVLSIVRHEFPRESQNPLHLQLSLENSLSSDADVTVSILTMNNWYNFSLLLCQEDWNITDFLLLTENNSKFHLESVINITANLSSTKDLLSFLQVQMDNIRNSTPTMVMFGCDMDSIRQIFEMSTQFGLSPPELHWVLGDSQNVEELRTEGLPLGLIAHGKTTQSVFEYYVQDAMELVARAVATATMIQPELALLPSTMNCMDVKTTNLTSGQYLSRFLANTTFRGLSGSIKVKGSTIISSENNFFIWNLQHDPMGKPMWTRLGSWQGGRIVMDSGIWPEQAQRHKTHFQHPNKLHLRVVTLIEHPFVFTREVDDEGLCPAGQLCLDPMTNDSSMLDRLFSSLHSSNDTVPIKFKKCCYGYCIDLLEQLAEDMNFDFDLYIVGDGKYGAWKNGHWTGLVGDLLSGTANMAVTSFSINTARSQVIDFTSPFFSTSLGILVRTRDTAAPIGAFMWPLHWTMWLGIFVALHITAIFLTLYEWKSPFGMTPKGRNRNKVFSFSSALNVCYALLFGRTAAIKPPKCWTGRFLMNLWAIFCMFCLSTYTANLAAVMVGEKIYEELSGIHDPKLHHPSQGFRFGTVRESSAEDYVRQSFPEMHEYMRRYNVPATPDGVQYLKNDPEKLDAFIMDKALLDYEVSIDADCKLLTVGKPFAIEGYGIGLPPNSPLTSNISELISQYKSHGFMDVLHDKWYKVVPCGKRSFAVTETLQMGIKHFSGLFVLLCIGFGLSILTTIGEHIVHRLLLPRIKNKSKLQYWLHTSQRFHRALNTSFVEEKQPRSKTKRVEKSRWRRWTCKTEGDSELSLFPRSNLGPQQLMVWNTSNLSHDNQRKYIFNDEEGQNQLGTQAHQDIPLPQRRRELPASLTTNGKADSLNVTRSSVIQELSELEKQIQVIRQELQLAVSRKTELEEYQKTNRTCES
Experimental: Two-electrode voltage-clamp (TEVC) recordings were performed on Xenopus oocytes expressing various subtypes of recombinant NMDARs. Each oocyte was injected with a mixture of 0.5–1.0 ng cDNAs or cRNAs encoding wild-type (WT) or mutant GluN1 (GluN1-1a or GluN1-4a) and GluN2 (2A-2D) or GluN3 (3A-3B) at a ratio of 1:1. The mutant GluN1-4a ^F484A/T518L was injected together with GluN3B to boost the currents of GluN1/GluN3B receptors, and WT GluN1-1a was used unless otherwise stated. The cRNAs of GluN1-4a, GluN3A and GluN3B were transcribed from corresponding DNAs using the mMESSAGE mMACHINE T7 Ultra kit (Life Technologies) according to the manufacturer’s instructions, and the others not specified were cDNAs. TEVC recording was performed 24–72 h post injection in extracellular solution containing (in mM): 100 NaCl, 0.3 BaCl2, 2.5 KCl, 0.01 DTPA and 5 HEPES, and the pH was adjusted to 7.3 using NaOH. All recordings were carried out at a holding potential of −60 mV.

KA receptors = assay: Whole-cell patch-clamp, KA-induced currents in acutely isolated hippocampal neurons; type: cell-based, rat; settings: 10 μM WZB117
Experimental: Hippocampal neurons were obtained from Sprague-Dawley rats (aged P7-14). Briefly, the isolated hippocampal tissues were cut into approximately […] slices along the sagittal plane and were digested with 3 mg/ml proteinase (Sigma-Aldrich) at 32°C for 8 min. Then 1 mg/ml bovine serum albumin (Sangon Biotech) and 1 mg/ml trypsin inhibitor (Sigma-Aldrich) were used to stop the digestion. A few slices of the hippocampus were gently blown into single cells with the dissecting solution, then transferred to a dish and left to rest for 20 min before experiments. The dishes were preprocessed. Essentially, the bottom of the dish was covered with discarded cell suspension the day before the experiment and was washed and dried the next day, which prevented the neurons from sticking to the bottom too tightly. The dissecting solution contained (in mM): 82 Na2SO4, 30 K2SO4, 5 MgCl2, 1 Na pyruvate, 10 HEPES, and 20 glucose. The pH was adjusted to 7.2 using NaOH ([Xie et al., 2020]).
Whole-cell patch-clamp recordings were performed at room temperature (22–25°C) using an EPC-10 amplifier and Patch Master Software (HEKA). Pipettes were pulled from borosilicate glass capillaries (World Precision Instruments), and the resistances were 3–5 MΩ when filled with the intracellular solution. […]

[2] = tested on: GluN1/GluN3A with mutations in the pre-M1 region of the GluN1 subunit; assay: Whole-cell patch-clamp on transiently transfected CHO cells, GluN1 pre-M1 alanine mutants; type: cell-based
Experimental: as §1, §2

inhibition of currents (GluN1/GluN3A receptors): potently suppressed
Compound: O=C(Oc1cccc(F)c1OC(=O)c1cccc(O)c1)c1cccc(O)c1 [WZB117, 3-fluoro-1,2-phenylene bis(3-hydroxybenzoate)]
influence of mutations on inhibitory effect [1]: significantly influenced the inhibitory effect
effect on KA-induced currents (KA receptors): little effect
influence of mutations on activity [2]: none of the mutations in the pre-M1 region of the GluN1 subunit showed a detectable influence
